Source: PMC6934184, “Selective DNA-PKcs inhibition extends the therapeutic index of localized radiotherapy and chemotherapy” (The Journal of Clinical Investigation, 2019)

Biological target: T1, STK24 (MST3) (Homo sapiens, UniProt Q9Y6E0)
T1 construct: purchased Thermo Fisher Scientific (Life Technologies) SelectScreen
Experiment: SelectScreen Z'LYTE
Assay type: biochemical
Summary of the method: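 Percent values come from Thermo SelectScreen profiling of NU5455, combining activity and binding assays. CSF1R was run in Z'LYTE format at Km app ATP, and CAMK1 in Adapta format with ATP listed at 10.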

T1 sequence (Q9Y6E0 whole entry): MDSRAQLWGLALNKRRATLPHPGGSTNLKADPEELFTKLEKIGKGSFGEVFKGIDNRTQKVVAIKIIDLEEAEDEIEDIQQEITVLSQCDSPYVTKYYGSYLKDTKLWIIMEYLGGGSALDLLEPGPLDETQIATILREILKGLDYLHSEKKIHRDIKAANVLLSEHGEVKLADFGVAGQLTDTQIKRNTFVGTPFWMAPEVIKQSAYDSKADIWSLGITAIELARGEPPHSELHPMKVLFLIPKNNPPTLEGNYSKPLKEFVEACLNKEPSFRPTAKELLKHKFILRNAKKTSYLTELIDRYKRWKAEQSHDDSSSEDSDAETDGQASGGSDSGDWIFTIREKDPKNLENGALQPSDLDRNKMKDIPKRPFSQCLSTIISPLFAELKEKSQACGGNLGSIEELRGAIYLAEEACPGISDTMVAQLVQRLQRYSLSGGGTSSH

CN(C(=O)CN1CCOCC1)c1ccc2sc3c(-c4cccc5c(=O)cc(N6CC7CCC(C6)O7)oc45)cccc3c2c1 [NU5455]
inhibition at 1 µM: 4.1%
